# Measurements: publication PMC8110578, “Phenylethynylbenzyl-modified biguanides inhibit pancreatic cancer tumor growth” (Scientific Reports, 2021)
# Experiments:
# [1] = system: NAD+/NADH ratio in PSN1 cells; assay: NAD/NADH quantification, PSN1 cells; format: cell-based; settings: 15 µM, 6 h
# Experimental: (§1) All chemicals were purchased from Aldrich Chemicals in their highest purity and used without further purification. Deuterated dimethylsulfoxide (DMSO-d^6) and deuterated chloroform (CDCl3) were purchased from CDN Isotopes. NMR spectra were recorded on Bruker advance 400 and 100 spectrometers. Coupling constants are given in hertz (Hz) and chemical shifts are given in parts per million (ppm, δ) measured relative to the residual solvent (the multiplicity of the signals are given as s: singlet, d: doublet, t: triplet, and m: multiplet). High-resolution mass spectra (HRMS) were recorded on a TSQ Quantum Ultra (Thermo Scientific) triple quadrupole with accurate mass option instrument (Université de Montréal Mass Spectrometry Facility). […] Transport and depolarization studies as well as absorbance measurements were performed on a Varian Cary Eclipse fluorescence spectrophotometer. The hemolysis assays were performed on a Fluostar Optima plate reader. […] A suitable crystal was selected and analysed on a Bruker Venture Metaljet diffractometer. Crystal violet retention assay was used for cell growth assays and IC50 were determined using Prism (GraphPad). NAD/NADH quantitation colorimetric kit (#K337-100) from Biovision was used according to manufacturer’s instructions. ECAR (extracellular acidification rate) and OCR of KP4 cells (oxygen consumption rate) were measured on a Seahorse XF-24 (Agilent). […]
# [2] = system: NAD+/NADH ratio in KP4 cells; assay: NAD/NADH quantification, KP4 cells; format: cell-based, human
# Experimental: as §1
# [3] = system: mitochondria of KP4 cells expressing pMXs-3XHA-EGFP-OMP25; assay: Mitochondrial permeation and accumulation (anti-HA IP, MALDI-MS); format: cell-based, human; settings: 15 µM, 3 h
# Experimental: Figure 2 (A) Partition of compounds in an U-tube experiment. Concentration of biguanide on the trans-side of the U-tube at 48 h and 72 h at 25 °C, after addition of 250 µM of biguanide on the cis-side. (B) Variation in the internal pH of HPTS-containing EYPC liposomes. Intravesicular solution: 1 mM HPTS, 10 mM HEPES, and 100 mM NaCl, adjusted to pH = 7.4, and extravesicular solution: 10 mM HEPES and 100 mM NaCl, adjusted to pH = 7.4. Biguanidiums were injected after 50 s at 5 mM (50 mol% relative to the 10 mM EYPC concentration), a NaOH pulse was induced at 300 s, and the liposomes were lysed with Triton-X at 550 s. Each curve is the average of three independent measurements. (C) Fluorescence of safranin O in the EYPC liposomes. Biguanidium salts were injected at 5 mM (50 mol% relative to the 10 mM EYPC concentration) at 50 s. Each curve is the average of three independent measurements. […] Mitochondrial isolation was performed according to the previously reported protocol.
# [4] = system: HPNE cells (normal immortalized pancreatic epithelial cells); assay: Growth assay (crystal violet), HPNE cells; format: cell-based, human; settings: 3 days treatment, crystal violet retention assay
# Experimental: . The IC50 of most of the synthetic biguanides in HPNE cells was higher than for cancer cells (Supplementary Table S12).
# All chemicals were purchased from Aldrich Chemicals in their highest purity and used without further purification. Deuterated dimethylsulfoxide (DMSO-d^6) and deuterated chloroform (CDCl3) were purchased from CDN Isotopes. NMR spectra were recorded on Bruker advance 400 and 100 spectrometers. Coupling constants are given in hertz (Hz) and chemical shifts are given in parts per million (ppm, δ) measured relative to the residual solvent (the multiplicity of the signals are given as s: singlet, d: doublet, t: triplet, and m: multiplet). High-resolution mass spectra (HRMS) were recorded on a TSQ Quantum Ultra (Thermo Scientific) triple quadrupole with accurate mass option instrument (Université de Montréal Mass Spectrometry Facility). MS experiences were performed using an UltrafleXtreme MALDI TOF/TOF mass spectrometer equipped with a SmartBeam II Nd:Yag/355 nm laser operating at 1 kHz and providing a laser focus down to 20 μm in diameter (Bruker Daltonics, Billerica, MA). The data acquisition for MS was performed in positive ion mode using the linear geometry with flexControl 3.4 (Bruker Daltonics, Billerica, MA). Acceleration voltage was set to + 25 kV and all other instrumental parameters (delayed extraction parameters, source voltages, detector gain, laser energy, etc.) were optimized for maximum S/N for the drug compounds. L-α-Phosphatidylcholine was purchased from Avanti Polar Lipids. Transport and depolarization studies as well as absorbance measurements were performed on a Varian Cary Eclipse fluorescence spectrophotometer. The hemolysis assays were performed on a Fluostar Optima plate reader. Single crystals of C18H18F3N5O3S were obtained from chloroform. A suitable crystal was selected and analysed on a Bruker Venture Metaljet diffractometer. Crystal violet retention assay was used for cell growth assays and IC50 were determined using Prism (GraphPad). NAD/NADH quantitation colorimetric kit (#K337-100) from Biovision was used according to manufacturer’s instructions. ECAR (extracellular acidification rate) and OCR of KP4 cells (oxygen consumption rate) were measured on a Seahorse XF-24 (Agilent).
# Experimental. KP4 (Riken RCB1005) and PSN1 (ATCC: CRM-CRL-3211), were cultured in Dulbecco's modified Eagle's medium (DMEM) (Wisent, St-Bruno, QC) supplemented with 10 % of fetal bovine serum (FBS) (Wisent). HPNE hTERT (ATCC: CRL1423) were cultured in a mix of 75% DMEM without glucose (Sigma Cat#. D-5030) with additional 2 mM L-glutamine and 1.5 g/L sodium bicarbonate, 25% Medium M3 Base (Incell Corp. Cat# M300F- 500), fetal bovine serum 5% (wisent 10 ng/ml human recombinant EGF (Sigma-Aldrich), 5.5 mM D-glucose (Sigma-Aldrich), 750 ng/ml puromycin (Sigma-Aldrich). For dose-response assays, cells were seeded in 96 well plates (company). After 24 h, treatments were applied and cells were grown for 3 more days. Crystal violet retention assay used for cell growth assays were described previously^2. The data is expressed as relative absorbance of crystal violet extracted from the cells and diluted in 10 % acetic acid. IC50 were determined using Prism (GraphPad). Tumor spheres were grew according to Ferbeyre et al^3.
smiles,measurement,setting,value
"N=C(N)NC(=N)NCc1ccc(C#Cc2ccccc2)cc1 [1b, 4-(phenylethynyl)benzylbiguanide]",Decrease of NAD+/NADH ratio,[1],25%
same,Decrease of NAD+/NADH ratio,"[2]; KP4 cells, 15 µM, 18 h",40%
same,"Fold lower concentration than metformin for AMPK activation, decrease of NAD+/NADH ratio and mitochondrial respiration",[2]; abstract,800 fold
same,Mitochondrial penetration,[3],able to efficiently penetrate mitochondria
same,IC50,[4],80.9 µM
